Experimental data as given in publication PMC9780888, “4-Isobutylmethcathinone—A Novel Synthetic Cathinone with High In Vitro Cytotoxicity and Strong Receptor Binding Preference of Enantiomers” (Pharmaceuticals, 2022).
Structures can show the parent of a compound that is named as a salt. Where two headings read alike, the source gives them in different places.

Experiments:
Hep G2 = assay: WST-1 viability assay, Hep G2 cells; format: cell-based, human; conditions: Hep G2, 72 h incubation, WST-1, four replicates
Procedure: (§1) Based on the novelty of the IMBcat compound, we aimed to evaluate its in vitro cytotoxicity in selected model cell lines as well as to determine the toxicity of the IBMcat enantiomers, since both the chemical structure and chirality of compounds could play a role in their bioactivity (Table 2). The cytotoxic profile of the IBMcat was determined by a WST-1 viability assay after 72-h treatment. For this purpose, cell lines derived from distinct tissues, often affected by NPSs, were chosen, i.e., cells of kidney, hepatic, neural, urinary, and intestinal origin as well as keratinocytes and primary fibroblasts (HEK 293T, Hep G2, HMC-3, SH-SY5Y, 5637, CaCo-2, HaCaT, MRC-5, and BJ, respectively). The cytotoxicity of IBMcat and its enantiomers was concentration- and cell-line dependent, the IC50 values, which were in the micromolar range, are given in Table 2. […] This was followed by embryonic kidney cells HEK 293T (immortalized), in which the toxicity ranged between a concentration of 123 and 192 µM.
(§2) In this study, the following cell lines were used: HEK 293T, Hep G2, HMC-3, SH-SY5Y, 5637, CaCo-2, HaCaT, MRC-5, BJ, and L929. […] The selected cell lines were chosen so that not only primary noncancerous cells are evaluated but also cells derived from tissues, which are the most often affected by novel synthetic drugs, i.e., kidney, liver, urinary bladder, and nervous tissue. […]
(§3) The cytotoxicity of IBMCat was evaluated in vitro by using a WST-1 viability assay (Sigma-Aldrich, Saint Louis, MO, USA) based on the transformation of a tetrazolium salt into colored formazan in metabolically active cells. […] After 72 h of additional incubation of the cells, their viability was determined by WST-1. […] The cells were incubated for 2 h, after which absorbance of the raised formazan was measured spectrophotometrically at 450 nm (reference wavelength of 630 nm) using a UV-Vis spectrometer (Bio-Rad Laboratories, Hercules, CA, USA). […] The half-maximal inhibitory concentrations (IC50) were calculated from the measured dose–response curves by AAT Bioquest.

HEK 293T = assay: WST-1 viability assay, HEK 293T cells; format: cell-based, human
Procedure: as §1
In this study, the following cell lines were used: HEK 293T, Hep G2, HMC-3, SH-SY5Y, 5637, CaCo-2, HaCaT, MRC-5, BJ, and L929. The cells lines were of the following origin: human embryonic immortalized kidney cells (HEK 293T), cells from hepatocellular carcinoma (Hep G2), microglial immortalized cells (HMC-3), cells from neuroblastoma (SH-SY5Y), the urinary bladder carcinoma (5637), colon carcinoma (CaCo-2), immortalized keratinocytes (HaCaT), noncancerous lung fibroblasts (MRC-5), fibroblasts from the foreskin (BJ) and mouse immortalized fibroblasts (L929; frequently used for cytotoxicity evaluation). The selected cell lines were chosen so that not only primary noncancerous cells are evaluated but also cells derived from tissues, which are the most often affected by novel synthetic drugs, i.e., kidney, liver, urinary bladder, and nervous tissue. Except for L929 and MRC-5 which were supplied by Sigma-Aldrich, the rest of the cell lines were purchased from the American Tissue Culture Collection (ATCC). […]
as §3

CaCo-2 = assay: WST-1 viability assay, CaCo-2 cells; format: cell-based, human; conditions: CaCo-2, 72 h incubation, WST-1, four replicates
Procedure: as §1, §2, §3

L929 = assay: WST-1 viability assay, L929 cells; format: cell-based, mouse; conditions: L929, 72 h incubation, WST-1, four replicates
Procedure: as §1, §2, §3

HMC-3 = assay: WST-1 viability assay, HMC-3 cells; format: cell-based, human; conditions: HMC-3, 72 h incubation, WST-1, four replicates
Procedure: as §1, §2, §3

MRC-5 = assay: WST-1 viability assay, MRC-5 cells; format: cell-based, human; conditions: MRC-5, 72 h incubation, WST-1, four replicates
Procedure: as §1, §2, §3

BJ = assay: WST-1 viability assay, BJ cells; format: cell-based, human; conditions: 72 h incubation, WST-1, four replicates
Procedure: as §1, §2, §3

[1] = Homo sapiens, 72 h incubation, WST-1, four replicates, read-out: IC50 ± SD

SMILES | IC50 (Hep G2; Homo sapiens, HepG2) [µM] | IC50 (HEK 293T; Homo sapiens, 72 h, racemate and enantiomers, read-out: toxicity (IC50) range) [µM] | IC50 (HEK 293T; [1]) [µM] | IC50 (CaCo-2; Homo sapiens) [µM] | IC50 (L929; Mus musculus) [µM] | IC50 (HMC-3; Homo sapiens, HMC3) [µM] | IC50 (MRC-5; Homo sapiens, MRC5) [µM] | IC50 (BJ; Homo sapiens) [µM] | IC50 (Hep G2) [µM] | IC50 (HEK 293T; 72 h incubation, WST-1, four replicates, read-out: IC50 ± SD) [µM] | IC50 (CaCo-2) [µM] | IC50 (L929) [µM] | IC50 (HMC-3) [µM] | IC50 (MRC-5) [µM] | IC50 (BJ) [µM]
CNC(C)C(=O)c1ccc(CC(C)C)cc1.Cl (stereo not shown) [IBMcat, 4-isobutylmethcathinone hydrochloride] | 52 ± 7 | 123 to 192 | 123 ± 6 | 389 ± 42 | 36 ± 4 | 61 ± 2 | 635 ± 17 | 749 ± 102 | – | – | – | – | – | – | –
CN[C@H](C)C(=O)c1ccc(CC(C)C)cc1 [R-IBMCat] | – | – | – | – | – | – | – | – | 49 ± 1 | 185 ± 5 | 331 ± 19 | 39 ± 2 | 65 ± 2 | 515 ± 34 | 698 ± 88
CN[C@@H](C)C(=O)c1ccc(CC(C)C)cc1 [S-IBMCat, (S)-4-isobutylmethcathinone hydrochloride] | 46 ± 9 | – | 192 ± 2 | 390 ± 17 | 33 ± 5 | 64 ± 1 | 530 ± 35 | 685 ± 41 | – | – | – | – | – | – | –
